How the values were obtained:
Salmonella typhi = assay: Kirby-Bauer disc diffusion; format: cell-based; conditions: reference antibiotic disc (5 μg)
[1] = system: Candida albicans ATCC10231; assay: Kirby-Bauer disc diffusion; format: cell-based; conditions: reference antibiotic disc (100unit)
Description: (§1) Experimental procedures include the following steps: • 1.

[2] = system: Cryptococcus neoformans ATCC90112; assay: Kirby-Bauer disc diffusion; format: cell-based; conditions: reference antibiotic disc (100unit)
Description: as §1

[3] = system: alloxan induced-diabetic rats; assay: Antihyperglycemic activity: fall in fasting blood glucose in alloxan induced-diabetic rats; format: in vivo, rat

Compound: O=C(O)c1cn(C2CC2)c2cc(N3CCNCC3)c(F)cc2c1=O [Cipro, ciprofloxacin]
- Zone of inhibition, Sal. typhi (Salmonella typhi): 35 mm

Compound: C[C@@H]1[C@H](O)[C@@H](C)/C=C/C=C/CC/C=C/C=C/C=C/C=C/C(O[C@H]2O[C@H](C)[C@@H](O)[C@H](N)[C@@H]2O)CC2O[C@](O)(CC(O)C(O)CCC(O)CC(O)CC(O)CC(=O)O[C@H]1C)CC(O)C2C(=O)O (stereo partly drawn) [Nystatin, nystatin]
- Zone of inhibition, C. albicans [1]: 10 mm
- Zone of inhibition, C. neoformance [2]: 9 mm

Compound: insulin: insulin from bovine pancreas (≧27 units/mg)
- FBG ([3]; all insulin-injected rats, after two hours of injection (p<0.001)): sharp significant decrease
- FBG difference between normal rats and treated diabetic rats ([3]; at either dose): No significant difference
- FBG ([3]; insulin 10 units/kg b.w, after 8 hours of treatment): returned to the diabetic state
